From ChEMBL document CHEMBL3044640, “Antifeedant, insect growth regulatory and insecticidal effects of Calceolaria talcana (Calceolariaceae) on Drosophila melanogaster and Spodoptera frugiperda” (2013)
≈ marks a conversion by molar mass, not a printed value. Calls of active or inactive are those of the source. No cut-off for these calls is given here.

Key:
Spodoptera frugiperda [1] = experiment: Insecticidal activity against larvae of Spodoptera frugiperda (fall armyworm) assessed growth index at 25 ppm; assay type: functional
Spodoptera frugiperda [2] = experiment: Antifeedant activity against larvae of Spodoptera frugiperda (fall armyworm) assessed reduction of pupation at 20 ppm after 21 days relative to control; assay type: functional; design: scale not given: the % may be the effect or the level left
Drosophila melanogaster [3] = experiment: Insecticidal activity against larvae of Drosophila melanogaster assessed as mortality after 72 hr by not choice test; assay type: functional
Spodoptera frugiperda [4] = experiment: Antifeedant activity against larvae of Spodoptera frugiperda (fall armyworm) at 10 ug/ml after 12 to 24 hr; assay type: functional
Spodoptera frugiperda [5] = experiment: Insecticidal activity against larvae of Spodoptera frugiperda (fall armyworm) assessed mortality at 35 ppm after 21 days relative to control; assay type: functional; details: 504 h
Spodoptera frugiperda [6] = experiment: Antifeedant activity against larvae of Spodoptera frugiperda (fall armyworm) assessed reduction of pupation at 35 ppm after 21 days relative to control; assay type: functional; design: scale not given: the % may be the effect or the level left
Drosophila melanogaster [7] = experiment: Insecticidal activity against larvae of Drosophila melanogaster assessed as mortality at 50 ug/ml after 72 hr by not choice test; assay type: functional
Drosophila melanogaster [8] = experiment: Antifeedant activity against larvae of Drosophila melanogaster at 50 ug/ml after 12 to 24 hr; assay type: functional
Spodoptera frugiperda [9] = experiment: Insecticidal activity against larvae of Spodoptera frugiperda (fall armyworm) assessed mortality at 10 ppm after 21 days relative to control; assay type: functional; details: 504 h
Spodoptera frugiperda [10] = experiment: Antifeedant activity against larvae of Spodoptera frugiperda (fall armyworm) assessed reduction of adult emergence at 10 ppm after 21 days relative to control; assay type: functional; design: scale not given: the % may be the effect or the level left
Spodoptera frugiperda [11] = experiment: Antifeedant activity against larvae of Spodoptera frugiperda (fall armyworm) assessed reduction of adult emergence at 20 ppm after 21 days relative to control; assay type: functional; design: scale not given: the % may be the effect or the level left
Spodoptera frugiperda [12] = experiment: Antifeedant activity against larvae of Spodoptera frugiperda (fall armyworm) at 100 ug/ml after 12 to 24 hr; assay type: functional
Spodoptera frugiperda [13] = experiment: Insecticidal activity against larvae of Spodoptera frugiperda (fall armyworm) assessed growth index at 50 ppm; assay type: functional
Drosophila melanogaster [14] = experiment: Insecticidal activity against larvae of Drosophila melanogaster assessed as mortality at 100 ug/ml after 72 hr by not choice test; assay type: functional
Drosophila melanogaster [15] = experiment: Antifeedant activity against larvae of Drosophila melanogaster at 100 ug/ml after 12 to 24 hr; assay type: functional
Drosophila melanogaster [16] = experiment: Antifeedant activity against larvae of Drosophila melanogaster at 10 ug/ml after 12 to 24 hr; assay type: functional
Drosophila melanogaster [17] = experiment: Antifeedant activity against larvae of Drosophila melanogaster at 25 ug/ml after 12 to 24 hr; assay type: functional
Spodoptera frugiperda [18] = experiment: Antifeedant activity against larvae of Spodoptera frugiperda (fall armyworm) assessed reduction of pupation at 50 ppm after 21 days relative to control; assay type: functional; design: scale not given: the % may be the effect or the level left
Drosophila melanogaster [19] = experiment: Insecticidal activity against larvae of Drosophila melanogaster assessed as mortality at 20 ug/ml after 72 hr by not choice test; assay type: functional
Spodoptera frugiperda [20] = experiment: Insecticidal activity against larvae of Spodoptera frugiperda (fall armyworm) assessed induction of apolysis at 25 ug/ml, po after 21 days; assay type: functional, organism-based
Spodoptera frugiperda [21] = experiment: Antifeedant activity against larvae of Spodoptera frugiperda (fall armyworm) assessed reduction of weight gain at 35 ppm after 21 days relative to control; assay type: functional; design: scale not given: the % may be the effect or the level left
Spodoptera frugiperda [22] = experiment: Insecticidal activity against larvae of Spodoptera frugiperda (fall armyworm) assessed mortality at 20 ppm after 21 days relative to control; assay type: functional; details: 504 h
Spodoptera frugiperda [23] = experiment: Insecticidal activity against larvae of Spodoptera frugiperda (fall armyworm) assessed induction of prothetely appearance of precocious pupal structures in larvae at 50 ug/ml, po after 48 to 72 hr; assay type: functional, organism-based
Spodoptera frugiperda [24] = experiment: Antifeedant activity against larvae of Spodoptera frugiperda (fall armyworm) assessed reduction of weight gain at 10 ppm after 21 days relative to control; assay type: functional; design: scale not given: the % may be the effect or the level left
Spodoptera frugiperda [25] = experiment: Antifeedant activity against larvae of Spodoptera frugiperda (fall armyworm) assessed reduction of adult emergence at 50 ppm after 21 days relative to control; assay type: functional; design: scale not given: the % may be the effect or the level left
Spodoptera frugiperda [26] = experiment: Insecticidal activity against larvae of Spodoptera frugiperda (fall armyworm) assessed growth index at 50 ppm relative to control; assay type: functional
Spodoptera frugiperda [27] = experiment: Insecticidal activity against larvae of Spodoptera frugiperda (fall armyworm) assessed growth index at 10 ppm; assay type: functional
Spodoptera frugiperda [28] = experiment: Antifeedant activity against larvae of Spodoptera frugiperda (fall armyworm) at 25 ug/ml after 12 to 24 hr; assay type: functional
Spodoptera frugiperda [29] = experiment: Antifeedant activity against larvae of Spodoptera frugiperda (fall armyworm) at 50 ug/ml after 12 to 24 hr; assay type: functional
Spodoptera frugiperda [30] = experiment: Antifeedant activity against larvae of Spodoptera frugiperda (fall armyworm) assessed reduction of weight gain at 50 ppm after 21 days relative to control; assay type: functional; design: scale not given: the % may be the effect or the level left
Spodoptera frugiperda [31] = experiment: Antifeedant activity against larvae of Spodoptera frugiperda (fall armyworm) assessed reduction of weight gain at 20 ppm after 21 days relative to control; assay type: functional; design: scale not given: the % may be the effect or the level left
Spodoptera frugiperda [32] = experiment: Insecticidal activity against larvae of Spodoptera frugiperda (fall armyworm) assessed growth index at 25 ppm relative to control; assay type: functional
Spodoptera frugiperda [33] = experiment: Insecticidal activity against larvae of Spodoptera frugiperda (fall armyworm) assessed growth index at 10 ppm relative to control; assay type: functional
Spodoptera frugiperda [34] = experiment: Antifeedant activity against larvae of Spodoptera frugiperda (fall armyworm) assessed reduction of pupation at 10 ppm after 21 days relative to control; assay type: functional; design: scale not given: the % may be the effect or the level left
Spodoptera frugiperda [35] = experiment: Insecticidal activity against larvae of Spodoptera frugiperda (fall armyworm) assessed growth index at 35 ppm; assay type: functional
Spodoptera frugiperda [36] = experiment: Insecticidal activity against larvae of Spodoptera frugiperda (fall armyworm) assessed growth index at 35 ppm relative to control; assay type: functional
Spodoptera frugiperda [37] = experiment: Insecticidal activity against larvae of Spodoptera frugiperda (fall armyworm) assessed inhibition of ecdysis at 25 ug/ml, po after 21 days; assay type: functional, organism-based
Spodoptera frugiperda [38] = experiment: Antifeedant activity against larvae of Spodoptera frugiperda (fall armyworm) at 5 ug/ml after 12 to 24 hr; assay type: functional
Spodoptera frugiperda [39] = experiment: Antifeedant activity against larvae of Spodoptera frugiperda (fall armyworm) assessed reduction of adult emergence at 35 ppm after 21 days relative to control; assay type: functional; design: scale not given: the % may be the effect or the level left
Spodoptera frugiperda [40] = experiment: Insecticidal activity against larvae of Spodoptera frugiperda (fall armyworm) assessed mortality at 50 ppm after 21 days relative to control; assay type: functional; details: 504 h
Spodoptera frugiperda [41] = experiment: Antifeedant activity against larvae of Spodoptera frugiperda (fall armyworm) assessed reduction of weight gain at 25 ppm after 21 days relative to control; assay type: functional; design: scale not given: the % may be the effect or the level left
Spodoptera frugiperda [42] = experiment: Antifeedant activity against larvae of Spodoptera frugiperda (fall armyworm) assessed reduction of pupation at 25 ppm after 21 days relative to control; assay type: functional; design: scale not given: the % may be the effect or the level left
Spodoptera frugiperda [43] = experiment: Antifeedant activity against larvae of Spodoptera frugiperda (fall armyworm) assessed reduction of adult emergence at 25 ppm after 21 days relative to control; assay type: functional; design: scale not given: the % may be the effect or the level left
Spodoptera frugiperda [44] = experiment: Insecticidal activity against larvae of Spodoptera frugiperda (fall armyworm) assessed mortality at 25 ppm after 21 days relative to control; assay type: functional; details: 504 h

## C[C@@H]1O[C@@H](O[C@@H]2[C@@H](O)[C@H](OCCc3ccc(O)c(O)c3)O[C@H](CO)[C@H]2OC(=O)/C=C/c2ccc(O)c(O)c2)[C@H](O)[C@H](O)[C@H]1O [ACETOSIDE]
Spodoptera frugiperda [1]
  Growth_index: 0.41
Spodoptera frugiperda [2]
  Activity: 3.1%
Drosophila melanogaster [3]
  LC50: 8.08 µg/mL (≈ 12.9 µM)
Spodoptera frugiperda [4]
  AFI: 88.2%
Spodoptera frugiperda [5]
  mortality at 35 ppm: 100%
Spodoptera frugiperda [6]
  Activity: 0%
Drosophila melanogaster [7]
  mortality at 50 µg/mL: 100%
Drosophila melanogaster [8]
  AFI: 100%
Spodoptera frugiperda [9]
  mortality at 10 ppm: 81.3%
Spodoptera frugiperda [10]
  Activity: 0%
Spodoptera frugiperda [11]
  Activity: 0%
Spodoptera frugiperda [12]
  AFI: 100%
Spodoptera frugiperda [13]
  Growth_index: 0.07
Drosophila melanogaster [14]
  mortality at 100 µg/mL: 100%
Drosophila melanogaster [15]
  AFI: 100%
Drosophila melanogaster [16]
  AFI: 89%
Drosophila melanogaster [17]
  AFI: 100%
Spodoptera frugiperda [18]
  Activity: 0%
Drosophila melanogaster [19]
  mortality at 20 µg/mL: 92%
Spodoptera frugiperda [20]
  Activity: Active
Spodoptera frugiperda [21]
  Activity: 0%
Spodoptera frugiperda [22]
  mortality at 20 ppm: 100%
Spodoptera frugiperda [23]
  Activity: Active
Spodoptera frugiperda [24]
  Activity: 2.15%
Spodoptera frugiperda [25]
  Activity: 0%
Spodoptera frugiperda [26]
  Ratio: 0.1
Spodoptera frugiperda [27]
  Growth_index: 0.66
Spodoptera frugiperda [28]
  AFI: 96.7%
Spodoptera frugiperda [29]
  AFI: 100%
Spodoptera frugiperda [30]
  Activity: 0%
Spodoptera frugiperda [31]
  Activity: 1.35%
Spodoptera frugiperda [32]
  Ratio: 0.45
Spodoptera frugiperda [33]
  Ratio: 0.67
Spodoptera frugiperda [34]
  Activity: 3.1%
Spodoptera frugiperda [35]
  Growth_index: 0.09
Spodoptera frugiperda [36]
  Ratio: 0.15
Spodoptera frugiperda [37]
  inhibition: Active
Spodoptera frugiperda [38]
  AFI: 78.9%
Spodoptera frugiperda [39]
  Activity: 0%
Spodoptera frugiperda [40]
  mortality at 50 ppm: 100%

## CC(=O)O[C@@H]1C[C@H]2C(C)(C)C(=O)C=C[C@]2(C)[C@H]2CC[C@@]3(C)[C@H](c4ccoc4)OC(=O)[C@H]4O[C@]43[C@@]21C [GEDUNIN]
Spodoptera frugiperda [1]
  Growth_index: 0.51
Drosophila melanogaster [3]
  LC50: 11.9 µg/mL (≈ 24.7 µM)
Spodoptera frugiperda [4]
  AFI: 74.5%
Spodoptera frugiperda [41]
  Activity: 1.35%
Drosophila melanogaster [7]
  mortality at 50 µg/mL: 100%
Drosophila melanogaster [8]
  AFI: 100%
Spodoptera frugiperda [9]
  mortality at 10 ppm: 11.6%
Spodoptera frugiperda [10]
  Activity: 15%
Spodoptera frugiperda [12]
  AFI: 100%
Spodoptera frugiperda [13]
  Growth_index: 0.1
Drosophila melanogaster [14]
  mortality at 100 µg/mL: 100%
Drosophila melanogaster [15]
  AFI: 100%
Drosophila melanogaster [16]
  AFI: 81%
Drosophila melanogaster [17]
  AFI: 98%
Spodoptera frugiperda [18]
  Activity: 0%
Drosophila melanogaster [19]
  mortality at 20 µg/mL: 87.1%
Spodoptera frugiperda [24]
  Activity: 2.05%
Spodoptera frugiperda [25]
  Activity: 0%
Spodoptera frugiperda [26]
  Ratio: 0.11
Spodoptera frugiperda [27]
  Growth_index: 0.77
Spodoptera frugiperda [28]
  AFI: 85.6%
Spodoptera frugiperda [42]
  Activity: 41.7%
Spodoptera frugiperda [29]
  AFI: 89.9%
Spodoptera frugiperda [30]
  Activity: 0%
Spodoptera frugiperda [32]
  Ratio: 0.55
Spodoptera frugiperda [43]
  Activity: 13%
Spodoptera frugiperda [44]
  mortality at 25 ppm: 8.4%
Spodoptera frugiperda [33]
  Ratio: 0.71
Spodoptera frugiperda [34]
  Activity: 54.2%
Spodoptera frugiperda [38]
  AFI: 68.8%
Spodoptera frugiperda [40]
  mortality at 50 ppm: 100%
